{"source": "ChEMBL document CHEMBL6120990", "about": "“A Putative Frizzled 7-Targeting Compound Acts as a Firefly Luciferase Inhibitor” (J Med Chem, 2024)", "key": {"HEK293 [1]": {"test_system": "HEK293", "test": "Inhibition of Wnt/beta-catenin signalling in deltaFZD1-10 HEK293 cells transfected with HiBit-FZD7 assessed as reduction in Wnt3a induced topflash signal at 10 uM pre-stimulated with Wnt3a followed by compound addition and measured after 24 hrs by dual luciferase reporter assay", "format": "cell-based", "conditions": "Homo sapiens"}, "HEK293 [2]": {"test_system": "HEK293", "test": "Inhibition of Wnt/beta-catenin signalling in deltaFZD1-10 HEK293 cells transfected with HiBit-FZD7 assessed as reduction in topflash signal at 10 uM incubated for 24 hrs by dual luciferase reporter assay", "format": "cell-based", "conditions": "Homo sapiens"}, "HEK293 [3]": {"test_system": "HEK293", "test": "Inhibition of firefly luciferase expression in deltaFZD1-10 HEK293 cells assessed as reduction in bioluminescence incubated for 24 hrs by microplate reader analysis", "format": "functional, cell-based", "conditions": "Homo sapiens, dose 0.1-1000 nM"}, "[4]": {"test": "Inhibition of firefly luciferase expression in deltaFZD1-10 HEK293 cells incubated for 24 hrs by microplate reader analysis", "format": "functional, cell-based", "conditions": "Homo sapiens, HEK293, 24 h"}, "HEK293 [5]": {"test_system": "HEK293", "test": "Effect on renilla luciferase level deltaFZD1-10 HEK293 cells assessed as reduction in Rluc-bioluminescence at 0.1 to 1000 nM incubated for 24 hrs by luminescence based analysis", "format": "functional, cell-based", "conditions": "Homo sapiens, dose 0.1-1000 nM"}, "[6]": {"test": "Inhibition of Wnt/beta-catenin signalling in deltaFZD1-10 HEK293 cells transfected with HiBit-FZD7 assessed as inhibition of CHIR99021-induced TOPFlash ratio incubated for 24 hrs by dual luciferase reporter assay", "format": "cell-based", "conditions": "Homo sapiens, HEK293, 24 h"}, "HEK293 [7]": {"test_system": "HEK293", "test": "Inhibition of Wnt/beta-catenin signalling in deltaFZD1-10 HEK293 cells transfected with FZD7-DEP-Clamp assessed as effect on WNT-3A induced FZD7-DEP-Clamp signal using furimazine as substrate at 10 uM preincubated for 10 mins followed by WNT-3A stimulation and measured every 2 mins for 1 hr by luminescence based analysis", "format": "cell-based", "conditions": "Homo sapiens, time 70.0 min"}, "HEK293 [8]": {"test_system": "HEK293", "test": "Effect on Nano-luciferase activity in deltaFZD1-10 HEK293 cells at 0.1 to 1000 nM incubated for 24 hrs under TK promoter by luminescence based analysis", "format": "functional, cell-based", "conditions": "Homo sapiens, dose 0.1-1000 nM"}, "MEF": {"test_system": "MEF", "test": "Effect on WNT-3A induced Axin2 mRNA expression in mouse MEF cells at 10 uM stimulated with WNT-3A prior to compound addition and measured after 24 hrs by qPCR analysis", "format": "functional, cell-based"}}, "note": "The source made the active and inactive calls. The rule behind the calls is not given here."}
{"smiles": "Cc1ccc(C(=O)Nc2ccc(SCC(=O)Nc3nc(-c4ccccc4)cs3)cc2)c(C)c1", "values": [{"measurement": "inhibition", "setting": "HEK293 [1]", "result": "Active"}, {"measurement": "inhibition", "setting": "HEK293 [2]", "result": "Active"}, {"measurement": "inhibition", "setting": "HEK293 [3]", "result": "Dose-dependent-effect"}, {"measurement": "IC50", "setting": "[4]", "result": 23.7, "unit": "nM"}, {"measurement": "Activity", "setting": "HEK293 [5]", "result": "inactive"}, {"measurement": "IC50", "setting": "[6]; read-out: IC50", "result": 33, "unit": "nM"}, {"measurement": "IC50", "setting": "[6]; read-out: pIC50 (converted)", "result": 33.9, "unit": "nM"}, {"measurement": "inhibition", "setting": "HEK293 [7]", "result": "inactive"}, {"measurement": "Activity", "setting": "HEK293 [8]", "result": "inactive"}, {"measurement": "Activity", "setting": "MEF", "result": "inactive"}]}
